Where two headings read alike, the source gives them in different places.
Tests used:
human Cathepsin D = molecular target: T1, human Cathepsin D (Homo sapiens, UniProt P07339); experiment: Cathepsin D inhibition assay, hydrolysis of chromogenic substrate; format: biochemical
T1 construct: purchased
Procedure: (§1) The specific activity of plasmepsin II from Plasmodium falciparum (Plm II) cloned in and purified from Escherchia coli and commercially available human Cathepsin D were measured by following the hydrolysis of the chromogenic substrate Ala-Leu-Glu-Arg-Thr-nPhe-Phe-Ser-Phe-Pro-Thr-OH (California Peptide Research Inc., Napa, Calif.). The decrease in absorbance upon hydrolysis is monitored at 300 nm. Typical Plasmepsin II preparations hydrolyze chromogenic substrate at 4-5 s^−1 at 37° C. The inhibition assays were performed at 25° C. in 10 mM sodium formate, 2% DMSO, pH 4.0. These pH conditions mimic the conditions in the food vacuole of the parasite. […] Inhibition constants (Ki) for the inhibitors are obtained at the desired temperature and solvent conditions by measuring the rate of substrate hydrolysis at increasing amounts of inhibitors. Exemplary results from three compounds (KNI-10033, KNI-10030 and KNI-10006) are shown in FIG. 7A-C, and the results obtained with all KNI compounds tested are given in Table 1.

[1] = molecular target: T2, plasmepsin II from Plasmodium falciparum (Plm II) (Plasmodium falciparum, UniProt P46925); experiment: Plasmepsin II inhibition assay, hydrolysis of chromogenic substrate; format: biochemical; details: for discrimination factor / Cathepsin D selectivity: Plasmepsin II versus Cathepsin D, fold; for Discrimination Factor: Fold Selectivity for Plasmepsin II over Cathepsin D: ratio of the Ki for Cathepsin D to the Ki for Plasmepsin II
T2 construct: made in house; host or cells: Escherichia coli
T2 sequence (P46925 125-453): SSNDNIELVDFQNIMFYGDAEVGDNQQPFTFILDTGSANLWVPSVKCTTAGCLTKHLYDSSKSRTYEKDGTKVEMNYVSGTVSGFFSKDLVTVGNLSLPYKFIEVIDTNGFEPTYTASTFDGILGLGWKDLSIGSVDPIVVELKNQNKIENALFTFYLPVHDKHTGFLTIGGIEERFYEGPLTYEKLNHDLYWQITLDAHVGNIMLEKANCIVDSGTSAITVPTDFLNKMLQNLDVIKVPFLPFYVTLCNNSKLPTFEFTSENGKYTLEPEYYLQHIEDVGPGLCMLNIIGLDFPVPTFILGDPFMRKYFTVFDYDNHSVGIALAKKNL
Procedure: FIG. 7A-C. Inhibition of Plasmepsin II from Plasmodium falciparum by KNI-10033, KNI-10030 and KNI-10006 at 20° C. in 10 mM sodium citrate, 100 mM NaCl, 2% DMSO, pH 4.0. The inhibition constants are 3 nM, 11 nM and 0.5 rLM respectively.
as §1

[2] = 25° C., 10 mM sodium formate, 2% DMSO, pH 4.0, fit to competitive inhibition, read-out: Ki CatD
[3] = Table 2, read-out: Ki Cathepsin D
[4] = 25° C., 10 mM sodium formate, 2% DMSO, pH 4.0, fit to competitive inhibition, read-out: Ki Plm II
[5] = Table 2, read-out: Ki Plasmepsin II
[6] = 20° C., 10 mM sodium citrate, 100 mM NaCl, 2% DMSO, pH 4.0, read-out: inhibition constant, Plasmepsin II (FIG. 7)

T1 sequence (P07339 65-412): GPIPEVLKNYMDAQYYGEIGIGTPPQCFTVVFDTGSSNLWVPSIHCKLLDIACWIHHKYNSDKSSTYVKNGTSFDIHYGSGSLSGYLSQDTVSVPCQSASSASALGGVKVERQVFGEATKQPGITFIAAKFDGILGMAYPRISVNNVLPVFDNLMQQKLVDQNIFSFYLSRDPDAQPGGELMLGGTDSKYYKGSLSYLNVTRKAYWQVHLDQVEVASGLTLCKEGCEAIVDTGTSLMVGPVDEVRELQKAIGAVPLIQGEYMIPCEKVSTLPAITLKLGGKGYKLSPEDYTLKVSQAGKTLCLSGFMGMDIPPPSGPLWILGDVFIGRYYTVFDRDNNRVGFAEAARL

Row | Ki (human Cathepsin D; [2]) | Ki [1, 4] | SMILES | further results
1 | 1.77 ± 0.23 µM | 0.036 ± 0.01 µM | CSCC(NC(=O)COc1cccc2cnccc12)C(=O)NC(Cc1ccccc1)C(O)C(=O)N1CSC(C)(C)C1C(=O)NC(C)(C)C (stereo not drawn) [KNI-227] | Ki (human Cathepsin D; [3]): 1.77 µM; inhibition constants against Plasmepsin II, in words [1]: nanomolar and subnanomolar range; discrimination factor / Cathepsin D selectivity [1]: 50; Ki [1, 5]: 0.036 µM; Discrimination Factor: Fold Selectivity for Plasmepsin II over Cathepsin D [1]: ~49; Ki ([1]; read-out: Ki against Plasmepsin II): 0.03 µM
2 | 2.58 ± 0.3 µM | 1 ± 0.2 µM | CSC[C@H](NC(=O)COc1cccc2cnccc12)C(=O)N[C@@H](Cc1ccccc1)[C@H](O)C(=O)N1CSC[C@H]1C(=O)NC(C)(C)C [KNI-272] | 
3 | 8.12 ± 1.5 µM | 96.9 ± 19.1 µM | CC(C)(C)NC(=O)[C@@H]1CSCN1C(=O)[C@@H](O)[C@H](Cc1ccccc1)NC(=O)CCC(=O)O [KNI-357] | 
4 | 1.35 ± 0.08 µM | 12.7 ± 1.5 µM | CC(C)(C)NC(=O)[C@@H]1CSCN1C(=O)[C@@H](O)[C@H](Cc1ccccc1)NC(=O)CC(C)(C)C(=O)O [KNI-391] | Ki (human Cathepsin D; read-out: Ki for Cathepsin D): 1.35 µM
5 | 7.26 ± 1.4 µM | 1.39 ± 0.5 µM | CC(C)(C)NC(=O)[C@H]1N(C(=O)[C@@H](O)[C@H](Cc2ccccc2)NC(=O)CC(C)(C)C(=O)O)CSC1(C)C [KNI-413] | 
6 | 3.7 ± 0.35 µM | 0.34 ± 0.02 µM | CC(C)[C@H](NC(=O)COc1cccc2cnccc12)C(=O)N[C@@H](Cc1ccccc1)[C@H](O)C(=O)N1CSC(C)(C)[C@H]1C(=O)NC(C)(C)C [KNI-492] | 
7 | 8.82 ± 2.8 µM | 8.09 ± 2.6 µM | CSC[C@H](NC(=O)COc1cccc2cnccc12)C(=O)N[C@@H](Cc1ccccc1)[C@@H](O)C(=O)N1CSC[C@H]1C(=O)NC(C)(C)C [KNI-529] | 
8 | 18.2 ± 3.3 µM | 30.7 ± 8.1 µM | CC(C(=O)O)C(C)C(=O)N[C@@H](Cc1ccccc1)[C@H](O)C(=O)N1CSC[C@H]1C(=O)NC(C)(C)C (stereo partly drawn) [KNI-547] | 
9 | 3.44 ± 0.7 µM | 0.59 ± 0.07 µM | Cc1c(O)cccc1C(=O)N[C@@H](Cc1ccccc1)[C@H](O)C(=O)N1CSC(C)(C)[C@H]1C(=O)NC(C)(C)C [KNI-577] | 
10 | 1.6 ± 0.3 µM | 0.07 ± 0.04 µM | Cc1cccc(C)c1OCC(=O)NC(Cc1ccccc1)C(O)C(=O)N1CSC(C)(C)C1C(=O)NC(C)(C)C (stereo not drawn) [KNI-727] | Ki (human Cathepsin D; [3]): 1.6 µM; inhibition constants against Plasmepsin II, in words [1]: nanomolar and subnanomolar range; discrimination factor / Cathepsin D selectivity [1]: 22; Discrimination Factor: Fold Selectivity for Plasmepsin II over Cathepsin D [1]: ~23
11 | 1.61 ± 0.33 µM | 0.359 ± 0.06 µM | CC[C@H](C)[C@H](NC(=O)COc1cccc2cnccc12)C(=O)N[C@@H](Cc1ccccc1)[C@H](O)C(=O)N1CSC(C)(C)[C@H]1C(=O)NC(C)(C)C [KNI-10001] | 
12 | 0.112 ± 0.02 µM | 0.244 ± 0.02 µM | CC(C)[C@H](NC(=O)c1cc(=O)c2ccccc2o1)C(=O)N[C@@H](Cc1ccccc1)[C@H](O)C(=O)N1CSC(C)(C)[C@H]1C(=O)NC(C)(C)C [KNI-10002] | 
13 | 0.97 ± 0.1 µM | 1.15 ± 0.19 µM | CC(C)[C@H](NC(=O)c1ccccn1)C(=O)N[C@@H](Cc1ccccc1)[C@H](O)C(=O)N1CSC(C)(C)[C@H]1C(=O)NC(C)(C)C [KNI-10003] | 
14 | 0.29 ± 0.09 µM | 0.522 ± 0.05 µM | CC(C)[C@H](NC(=O)c1ccc2ccccc2n1)C(=O)N[C@@H](Cc1ccccc1)[C@H](O)C(=O)N1CSC(C)(C)[C@H]1C(=O)NC(C)(C)C [KNI-10004] | 
15 | 0.507 ± 0.1 µM | 0.25 ± 0.19 µM | CC(C)[C@H](NC(=O)COc1cccc(Nc2ccccc2)c1)C(=O)N[C@@H](Cc1ccccc1)[C@H](O)C(=O)N1CSC(C)(C)[C@H]1C(=O)NC(C)(C)C [KNI-10005] | 
16 | 0.002 µM |  | Cc1cccc(C)c1OCC(=O)N[C@@H](Cc1ccccc1)[C@H](O)C(=O)N1CSC(C)(C)[C@H]1C(=O)N[C@H]1c2ccccc2C[C@H]1O [KNI-10006] | Ki (human Cathepsin D; [3]): 0.002 µM; inhibition constants against Plasmepsin II, in words [1]: nanomolar and subnanomolar range; discrimination factor / Cathepsin D selectivity [1]: 4; Ki [1, 5]: 0.0005 µM; Discrimination Factor: Fold Selectivity for Plasmepsin II over Cathepsin D [1]: 4; Ki ([1]; read-out: Ki (Plasmepsin II)): 0.0005 µM
17 | 0.806 ± 0.6 µM | 0.071 ± 0.01 µM | Cc1cccc(C)c1OCC(=O)N[C@@H](Cc1ccccc1)[C@H](O)C(=O)N1CSC(C)(C)[C@H]1C(=O)N[C@@H]1c2ccccc2C[C@@H]1O [KNI-10007] | 
18 | 0.461 ± 0.14 µM | 0.169 ± 0.02 µM | COc1ccc(CNC(=O)[C@H]2N(C(=O)[C@@H](O)[C@H](Cc3ccccc3)NC(=O)COc3c(C)cccc3C)CSC2(C)C)cc1 [KNI-10008] | 
19 | 0.515 ± 0.047 µM | 2.18 ± 0.25 µM | CC(C)[C@H](NC(=O)c1cc2ccccc2o1)C(=O)N[C@@H](Cc1ccccc1)[C@H](O)C(=O)N1CSC(C)(C)[C@H]1C(=O)NC(C)(C)C [KNI-10009] | 

Row | Ki (human Cathepsin D; [2]) | Ki [1, 4] | SMILES | further results
20 | 0.655 ± 0.083 µM | 0.075 ± 0.01 µM | COc1ccc(CCNC(=O)[C@H]2N(C(=O)[C@@H](O)[C@H](Cc3ccccc3)NC(=O)COc3c(C)cccc3C)CSC2(C)C)cc1 [KNI-10025] | 
21 | 0.105 ± 0.018 µM | 0.015 ± 0.005 µM | Cc1cccc(C)c1OCC(=O)N[C@@H](Cc1ccccc1)[C@H](O)C(=O)N1CSC(C)(C)[C@H]1C(=O)N[C@H]1CCc2ccccc21 [KNI-10026] | Ki (human Cathepsin D; [3]): 0.105 µM; inhibition constants against Plasmepsin II, in words [1]: nanomolar and subnanomolar range; Ki [1, 5]: 0.015 µM; Discrimination Factor: Fold Selectivity for Plasmepsin II over Cathepsin D [1]: 7
22 | 1.03 ± 0.2 µM | 1.07 ± 0.09 µM | CC(C)[C@H](NC(=O)c1cccc2ccccc12)C(=O)N[C@@H](Cc1ccccc1)[C@H](O)C(=O)N1CSC(C)(C)[C@H]1C(=O)NC(C)(C)C [KNI-10027] | 
23 | 0.69 ± 0.07 µM | 1.63 ± 0.157 µM | CC(C)[C@H](NC(=O)Cc1cccc2ccccc12)C(=O)N[C@@H](Cc1ccccc1)[C@H](O)C(=O)N1CSC(C)(C)[C@H]1C(=O)NC(C)(C)C [KNI-10028] | 
24 | 0.282 ± 0.039 µM | 0.86 ± 0.09 µM | CC(C)[C@H](NC(=O)Cc1ccc2ccccc2c1)C(=O)N[C@@H](Cc1ccccc1)[C@H](O)C(=O)N1CSC(C)(C)[C@H]1C(=O)NC(C)(C)C [KNI-10029] | 
25 | 0.111 ± 0.015 µM |  | Cc1cccc(C)c1OCC(=O)N[C@@H](Cc1ccccc1)[C@H](O)C(=O)N1CSC(C)(C)[C@H]1C(=O)N[C@H](C)c1ccccc1 [KNI-10030] | Ki (human Cathepsin D; [3]): 0.111 µM; Ki [1, 6]: 0.011 µM; Ki [1, 5]: 0.011 µM; Discrimination Factor: Fold Selectivity for Plasmepsin II over Cathepsin D [1]: ~10
26 | 0.13 ± 0.019 µM | 0.083 ± 0.007 µM | Cc1cccc(C)c1OCC(=O)N[C@@H](Cc1ccccc1)[C@H](O)C(=O)N1CSC(C)(C)[C@H]1C(=O)Nc1cccc2ccccc12 [KNI-10031] | 
27 | 2.62 ± 0.39 µM | 0.535 ± 0.055 µM | CSCC[C@H](NC(=O)COc1cccc2cnccc12)C(=O)N[C@@H](Cc1ccccc1)[C@H](O)C(=O)N1CSC(C)(C)[C@H]1C(=O)NC(C)(C)C [KNI-10032] | 
28 | 0.04 ± 0.01 µM |  | CSC[C@H](NC(=O)COc1cccc2cnccc12)C(=O)N[C@@H](Cc1ccccc1)[C@H](O)C(=O)N1CSC(C)(C)[C@H]1C(=O)N[C@H]1Cc2ccccc2[C@H]1O [KNI-10033] | Ki (human Cathepsin D; read-out: Ki for Cathepsin D): 0.04 µM; inhibition constants against Plasmepsin II, in words [1]: nanomolar and subnanomolar range; Ki [1, 6]: 0.003 µM; Ki [1, 5]: 0.003 µM; Discrimination Factor: Fold Selectivity for Plasmepsin II over Cathepsin D [1]: ~13
29 | 1.67 ± 0.256 µM | 0.496 ± 0.069 µM | CSC[C@H](NC(=O)COc1c(C)cccc1C)C(=O)N[C@@H](Cc1ccccc1)[C@H](O)C(=O)N1CSC(C)(C)[C@H]1C(=O)NC(C)(C)C [KNI-10041] | 
30 | 2.26 ± 0.166 µM | 0.222 ± 0.017 µM | CCC[C@H](NC(=O)COc1cccc2cnccc12)C(=O)N[C@@H](Cc1ccccc1)[C@H](O)C(=O)N1CSC(C)(C)[C@H]1C(=O)NC(C)(C)C [KNI-10042] | 
31 | 0.053 ± 0.008 µM | 0.022 ± 0.005 µM | Cc1cccc(C)c1OCC(=O)N[C@@H](Cc1ccccc1)[C@H](O)C(=O)N1CSC(C)(C)[C@H]1C(=O)N[C@H](CO)c1ccccc1 [KNI-10043] | Ki (human Cathepsin D; [3]): 0.053 µM; inhibition constants against Plasmepsin II, in words [1]: nanomolar and subnanomolar range; Ki [1, 5]: 0.022 µM; Discrimination Factor: Fold Selectivity for Plasmepsin II over Cathepsin D [1]: 2.4
32 | 1.04 ± 0.178 µM | 0.532 ± 0.07 µM | Cc1cccc(C)c1OCC(=O)NC(Cc1ccccc1)C(O)C(=O)N1CSC(C)(C)C1C(=O)NC(CO)c1ccccc1 (stereo not drawn) [KNI-10044] | 
33 | 6.16 ± 0.671 µM | 1.08 ± 0.165 µM | CC(C)(C)NC(=O)[C@H]1N(C(=O)[C@@H](O)[C@H](Cc2ccccc2)NC(=O)COc2cccc(Cl)c2)CSC1(C)C [KNI-10045] | 
34 | 0.26 ± 0.023 µM | 0.096 ± 0.02 µM | Cc1cccc(C)c1OCC(=O)N[C@@H](Cc1ccccc1)[C@H](O)C(=O)N1CSC(C)(C)[C@H]1C(=O)NCc1ccccc1 [KNI-10046] | 
35 | 0.252 ± 0.053 µM | 0.055 ± 0.007 µM | Cc1cccc(C)c1OCC(=O)N[C@@H](Cc1ccccc1)[C@H](O)C(=O)N1CSC(C)(C)[C@H]1C(=O)NCc1ccccc1O [KNI-10047] | 
36 | 0.771 ± 0.097 µM | 0.099 ± 0.014 µM | Cc1cccc(C)c1OCC(=O)N[C@@H](Cc1ccccc1)[C@H](O)C(=O)N1CSC(C)(C)[C@H]1C(=O)NCc1cccc(O)c1 [KNI-10048] | 
37 | 2.58 ± 0.682 µM | 1.51 ± 0.125 µM | CC(C)C(NC(=O)OCc1ccccc1)C(=O)NC(Cc1ccccc1)C(O)C(=O)N1CSC(C)(C)C1C(=O)NC(C)(C)C (stereo not drawn) [KNI-10049] | 

— US7560482B2, “Inhibitors of plasmepsins” (The Johns Hopkins University, priority 2001, dated 2009)
